Patent US20120027753A1, “MicroRNAs in Never-Smokers and Related Materials and Methods” (THE OHIO STATE UNIVERSITY, priority 2009, published 2012)

Columns and labels:
Type in all cases: cell-based, human
[1] = tested on: miR-21 expression in H3255 cells; assay: qRT-PCR of miR-21 expression after AG1478/EGF treatment, H3255; conditions: for miR-21 expression levels: AG1478 2 μM or 10 μM
Description: (§1) FIGS. 2A-2B: AG1478 represses miR-21 expression. H3255 lung adenocarcinoma cells, characterized by a high expression of miR-21 and EGFR mutation, were serum-starved for 24 h and then grown in either the presence or absence of AG1478 (2 μM or 10 μM) for 2 h with or without following exposure to 20 ng/ml of EGF for 15 min.
FIG. 2B: MiR-21 expression levels analyzed by qRT-PCR after the AG1478 treatments (2 μM or 10 μM) with or without EGF ligand stimulation. MiR-21 expression levels were expressed as the relative values to untreated cells in the absence of EGF. Data were mean±SD from four independent experiments. *, p<0.05, paired t-test.
(§2) Expression of mature miRs was examined using qRT-PCR analysis using a TaqMan Human MicroRNA Assay kit (Applied Biosystems, Foster City, Calif.). RNU6B was used as an endogenous control (#4373381, Applied Biosystems). Reactions were performed using a PRISM 7700 Sequence Detector System (Applied Biosystems). Gene expression was quantified and values were reported as 2-ΔΔCT. Data were presented as mean±SD from triplicate.
(§3) AG1478 was purchased from Calbiochem (San Diego, Calif.). Epidermal growth factor (EGF) was purchased from Promega (Madison, Wis.). To evaluate the effect of AG1478 on the EGFR signaling pathway and miR-21 expression levels, lung cancer cell lines were serum-starved for 24 h, incubated in the presence or absence of AG1478 (2 μM or 10 μM) for 2 h, and then for an additional 15 min in the presence or absence of EGF (20 ng/ml).

[2] = tested on: H3255 lung adenocarcinoma cells (EGFR mutant L858R); assay: MTS growth inhibition assay, H3255; conditions: 72 h, read-out: IC50 (half maximal inhibitory concentration), cell growth
Source text: (§4) Six lung adenocarcinoma cell lines (A549, H23, H441, H1650, H1975 and H3255), one squamous cell line (H157) and one large cell carcinoma cell line (H1299) were used in this study. H3255 was provided by National Cancer Institute and maintained in ACL-4 medium (GIBCO) with 5% fetal bovine serum (GIBCO). A549, H23, H441, H1650, H1975, H157 and H1299 were purchased from American Type Culture Collection (ATCC) and maintained in RPMI 1640 (GIBCO) with 10% fetal bovine serum. hTERT-immortalized normal human bronchial epithelial cells (HBET2) were established.
(§5) Growth inhibition was assessed by MTS assay (Dojindo, Japan) to examine the effect of AG1478 on lung cancer cell lines. Cell suspensions (5,000 cells/well) were seeded into 96-well plates and increasing concentrations of AG1478 (0, 0.4, 2.0, 10 and 50 μM) were added. After incubation for 72 h at 37° C., MTS [3-(4,5-dimethylthiazol-2-yl)-5-(3-carboxymethoxyphenyl)-2-(4-sulfophenyl) 2H-tetrazolium, inner salt] was added to each well and incubated for 2 h at 37° C., and then absorbance was measured using a microplate reader with a test wavelength of 450 nm. The IC50 value was defined as the concentration needed for 50% reduction of the growth by treatment with AG1478. Each experiment was done at least in triplicate, and four times independently. The data were shown as mean±SD.

[3] = tested on: H441 lung adenocarcinoma cells (EGFR wild-type); assay: MTS growth inhibition assay, H441; conditions: 72 h, read-out: IC50 (half maximal inhibitory concentration), cell growth
Source text: as §4, §5

[4] = tested on: H1650 lung adenocarcinoma cells (EGFR mutant ΔE746-A750); assay: MTS growth inhibition assay, H1650
Source text: as §4, §5

[5] = tested on: A549 lung adenocarcinoma cells (EGFR wild-type); assay: MTS growth inhibition assay, A549
Source text: as §4, §5

[6] = tested on: H1975 lung adenocarcinoma cells (EGFR mutant L858R and T790M); assay: MTS growth inhibition assay, H1975
Source text: as §4, §5

[7] = tested on: EGFR signaling (phospho-EGFR, phospho-Akt) in H3255 cells; assay: Western blot of p-EGFR and p-Akt after AG1478 treatment, H3255; conditions: H3255, AG1478 at either 2 μM or 10 μM for 2 h, with or without EGF 20 ng/ml
Description: as §1
FIG. 2A: The effect of AG1478 on phospho-EGFR (p-EGFR) and phospho-Akt (p-Akt) expression. β-actin was a loading control.
as §3
Cells were lysed in buffer containing 50 mM Tris-HCl, pH 7.6, 150 mM NaCl, 0.1% sodium dodecyl sulfate, 1% Nonidet P-40, and 0.5% sodium-deoxycholate. […] The supernatant was collected and then 10 μg of protein were separated by gel electrophoresis on 10% gels, transferred to nitrocellulose membranes and detected by immunoblotting using a chemiluminescence system (GE Healthcare Bio-Sciences Corp, Piscataway, N.J.). The images were quantified by measuring signal intensity using NIH ImageJ1.40g (rsb.info.nih.gov/ij/). […]

[8] = tested on: miR-21 expression in H441 cells; assay: qRT-PCR of miR-21 expression after AG1478 treatment, H441; conditions: H441, AG1478 at 10 μM, absence of EGF, p<0.05
Description: FIG. 7: AG1478 represses miR-21 expression in H441 lung adenocarcinoma cells. MiR-21 expression levels were analyzed by qRT-PCR after the AG1478 treatments (2 μM or 10 μM) in the absence of EGF and expressed relative to untreated cells. Data were mean±SD from triplicate. *, p<0.05, paired t-test.
as §2, §3

[9] = tested on: miR-21 in H3255 cells; assay: qRT-PCR of miR-21 after anti-miR-21 transfection, H3255; conditions: H3255, 40 nM, 72 h, vs anti-EGFP control
Description: (§6) FIG. 3A: Cells were transfected with 40 nM of anti-miR-21 (+) or control oligonucleotide (anti-EGFP) (−) for 72 h and examined by qRT-PCR. The expression levels of miR-21 after transfection of anti-miR-21 were expressed as the relative values to control. Data were mean±SD from three independent experiments. *, p<0.05, paired t-test.
as §2
(§7) 2′-O-methyl oligonucleotides were chemically synthesized at Integrated DNA Technologies (Coralville, Iowa). […] Activities of caspase-3 and caspase-7 were analyzed using ApoONE Homogeneous Caspase 3/7 Assay (Promega) according to the manufacturer's instructions. Samples were measured after 6 h of incubation with the caspase substrate on a fluorescent plate reader using wavelengths of 485 and 535 nm for excitation and emission, respectively. […]

[10] = tested on: miR-21 in H441 cells; assay: qRT-PCR of miR-21 after anti-miR-21 transfection, H441; conditions: H441, 40 nM, 72 h, vs anti-EGFP control
Description: as §6, §2, §7

[11] = tested on: H3255 cells (caspase-3 and caspase-7 activities); assay: ApoONE caspase 3/7 apoptosis assay, H3255
Description: (§8) FIGS. 3B-3C: Cells (H3255 or H441) were transfected with 40 nM of anti-miR-21 (+) or anti-EGFP (−) for 72 h and then grown in the presence or absence of 0.2 μM of AG1478 for 24 h (H3255) or 10 μM for 72 h (H441). The activities of caspase 3/7 were expressed as the relative values to the activities of cells without anti-miR-21 and AG1478. Data were mean±SD from at least four independent experiments. *, p<0.05, Student t-test.
(§9) 2′-O-methyl oligonucleotides were chemically synthesized at Integrated DNA Technologies (Coralville, Iowa). 2′-O-methyl oligonucleotides had the following sequences: 2′OMe-enhanced green fluorescent protein (EGFP) (anti-EGFP) 5′-AAGGCAAGCUGACCCUGAAGU-3′ [SEQ ID NO:1] and 2′OMe-miR-21 (anti-miR-21) 5′-UCA ACA UCA GUC UGA UAA GCUA-3′ [SEQ ID NO:2]. H441 and H3255 cells were plated in triplicate in 96-well plates. Cells were transfected using LipofectAMINE 2000 reagent (Invitrogen) 24 h after plating. […] Activities of caspase-3 and caspase-7 were analyzed using ApoONE Homogeneous Caspase 3/7 Assay (Promega) according to the manufacturer's instructions. Samples were measured after 6 h of incubation with the caspase substrate on a fluorescent plate reader using wavelengths of 485 and 535 nm for excitation and emission, respectively. […]

[12] = tested on: H441 cells (caspase-3 and caspase-7 activities); assay: ApoONE caspase 3/7 apoptosis assay, H441
Description: as §8, §9

[13] = tested on: uncleaved PARP in H3255 cells; assay: Western blot of uncleaved PARP, H3255; conditions: H3255, both anti-miR-21 and AG1478 (2 μM, 72 h)
Description: (§10) FIG. 3D: Uncleaved PARP was evaluated by Western blot. Cells were transfected with anti-miR-21 or anti-EGFP as above and then grown in the presence or absence of 2 μM of AG1478 for 72 h. β-actin was a loading control.
(§11) Cells were lysed in buffer containing 50 mM Tris-HCl, pH 7.6, 150 mM NaCl, 0.1% sodium dodecyl sulfate, 1% Nonidet P-40, and 0.5% sodium-deoxycholate. The lysates were kept on ice for 30 min, and then centrifuged at 13000 g for 30 min. The supernatant was collected and then 10 μg of protein were separated by gel electrophoresis on 10% gels, transferred to nitrocellulose membranes and detected by immunoblotting using a chemiluminescence system (GE Healthcare Bio-Sciences Corp, Piscataway, N.J.). The images were quantified by measuring signal intensity using NIH ImageJ1.40g (rsb.info.nih.gov/ij/). The antibodies detecting EGFR, phospho-EGFR (Tyr1173), phospho-Akt (Ser473), PARP and β-actin were purchased from Cell Signaling Technology (Beverley, Mass.).

[14] = tested on: uncleaved PARP in H441 cells; assay: Western blot of uncleaved PARP, H441; conditions: H441, anti-miR-21 in the presence or absence of AG1478 (2 μM, 72 h)
Description: as §10, §11

Question: “EGF: Epidermal growth factor (EGF) ligand, purchased from Promega” was tested. Which “upregulation of miR-21 expression” value ([1]; H3255, serum-starved, EGF 20 ng/ml for 15 min, relative to untreated cells) did it give?
Answer: ~2.5 fold

Question: With `COc1cc2ncnc(Nc3cccc(Cl)c3)c2cc1OC` [AG1478] as the compound, how does the IC50 [2] read?
Answer: 0.3 µM

Question: And the IC50 [3]?
Answer: 10 µM

Question: And the cell proliferation [4]?
Answer: inhibited cell proliferation

Question: What about the cell proliferation [5] of the same compound?
Answer: inhibited cell proliferation

Question: And the cell proliferation [6]?
Answer: inhibited cell proliferation

Question: What about the “EGFR signaling (p-EGFR and p-Akt)” value [7] of the same compound?
Answer: effectively inhibited the EGFR signaling

Question: And the miR-21 expression levels ([1]; H3255, absence of EGF, p<0.01)?
Answer: significantly repressed

Question: And the miR-21 expression levels ([1]; H3255, with EGF 20 ng/ml, p<0.05)?
Answer: inhibited back to the basal levels

Question: And the miR-21 expression [8]?
Answer: significantly repressed miR-21 expression

Question: “anti-miR-21: 2′-O-methyl antisense oligonucleotide targeting miR-21, 5′-UCA ACA UCA GUC UGA UAA GCUA-3′ [SEQ ID NO:2] (antisense UCAACAUCAGUCUGAUAAGCUA; all 2'-O-methyl, backbone not given here)” was tested. Which “miR-21 expression after antisense transfection” value [9] did it give?
Answer: repression of miR-21 in these cells was confirmed

Question: What about the “miR-21 expression after antisense transfection” value [10] of the same compound?
Answer: repression of miR-21 in these cells was confirmed

Question: And the “apoptosis (caspase 3/7 activities)” value ([11]; H3255, anti-miR-21 40 nM alone)?
Answer: did not induce apoptosis

Question: And the “apoptosis (caspase 3/7 activities)” value ([11]; H3255, anti-miR-21 40 nM in combination with AG1478 at 0.2 μM for 24 h)?
Answer: significantly enhanced AG1478-induced apoptotic response

Question: What about the “apoptosis (caspase 3/7 activities)” value ([12]; H441, anti-miR-21 40 nM alone) of the same compound?
Answer: significant increase in apoptotic response

Question: What about the “apoptosis (caspase 3/7 activities)” value ([12]; H441, anti-miR-21 40 nM in combination with 10 μM AG1478 for 72 h) of the same compound?
Answer: further enhanced apoptotic response

Question: And the “amounts of uncleaved PARP” value [13]?
Answer: markedly decreased

Question: What about the “amounts of uncleaved PARP” value [14] of the same compound?
Answer: markedly decreased
